Assay results published in patent US6552080B1, “Fungicidal compounds having a fluorovinyl-or fluoropropenyl-oxyphenyloxime moiety and process for the preparation thereof” (Korea Research Institute of Chemical Technology, priority 1999, dated 2003).

What follows are compounds tested on Pyricularia oryzae Carvara KA301 (assay: not given). Details: 2 ppm.
Type: in vivo

Structure (SMILES)	Fungicidal Activities RCV (C.V.)
CNC(=O)C(=NOC)c1ccccc1CON=C(C)c1cccc(OC(F)=C(c2ccc(OC)cc2)C(F)(F)F)c1 [Compound 198]	95%
COC=C(C(=O)OC)c1ccccc1CON=C(C)c1cccc(OC(F)=C(c2ccc(Cl)cc2)C(F)(F)F)c1 [Compound 163]	58%
CNC(=O)C(=NOC)c1ccccc1CON=C(C)c1cccc(OC(F)=C(c2ccc(C)c(C)c2)C(F)(F)F)c1 [Compound 193]	93%

Same assay, conditions: 10 ppm

Structure (SMILES)	Fungicidal Activities RCV (C.V.)
COC=C(C(=O)OC)c1ccccc1CON=C(C)c1cccc(OC(F)=C(c2ccc(Cl)cc2)C(F)(F)F)c1 [Compound 163]	86%

Same assay, conditions: 50 ppm

Structure (SMILES)	Fungicidal Activities RCV (C.V.)
CNC(=O)C(=NOC)c1ccccc1CON=C(C)c1cccc(OC(F)=C(c2ccc(OC)cc2)C(F)(F)F)c1 [Compound 198]	100%
COC=C(C(=O)OC)c1ccccc1CON=C(C)c1cccc(OC(F)=C(c2ccc(Cl)cc2)C(F)(F)F)c1 [Compound 163]	90%
CNC(=O)C(=NOC)c1ccccc1CON=C(C)c1cccc(OC(F)=C(c2ccc(C)c(C)c2)C(F)(F)F)c1 [Compound 193]	96%

The compounds below were run on Botrytis cinerae (assay: Fungicidal activity against Cucumber Gray Mold Rot (CGM) disease). Details: 50 ppm.
Type: in vivo

Structure (SMILES)	Fungicidal Activities CGM (C.V.)
CNC(=O)C(=NOC)c1ccccc1CON=C(C)c1cccc(OC(F)=C(c2ccc(OC)cc2)C(F)(F)F)c1 [Compound 198]	16%
COC=C(C(=O)OC)c1ccccc1CON=C(C)c1cccc(OC(F)=C(c2ccc(Cl)cc2)C(F)(F)F)c1 [Compound 163]	51%
CNC(=O)C(=NOC)c1ccccc1CON=C(C)c1cccc(OC(F)=C(c2ccc(C)c(C)c2)C(F)(F)F)c1 [Compound 193]	75%

These compounds were tested on Phytophthora infestans (assay: not given). Details: 2 ppm.
Type: in vivo

Structure (SMILES)	Fungicidal Activities TLB (C.V.)
CNC(=O)C(=NOC)c1ccccc1CON=C(C)c1cccc(OC(F)=C(c2ccc(C)c(C)c2)C(F)(F)F)c1 [Compound 193]	12%

Same assay, conditions: 50 ppm

Structure (SMILES)	Fungicidal Activities TLB (C.V.)
CNC(=O)C(=NOC)c1ccccc1CON=C(C)c1cccc(OC(F)=C(c2ccc(OC)cc2)C(F)(F)F)c1 [Compound 198]	0%
COC=C(C(=O)OC)c1ccccc1CON=C(C)c1cccc(OC(F)=C(c2ccc(Cl)cc2)C(F)(F)F)c1 [Compound 163]	12%
CNC(=O)C(=NOC)c1ccccc1CON=C(C)c1cccc(OC(F)=C(c2ccc(C)c(C)c2)C(F)(F)F)c1 [Compound 193]	40%

What follows are compounds tested on Puccinia recondita (assay: Fungicidal activity against Wheat Leaf Rust (WLR) disease). Details: 2 ppm.
Type: in vivo

Structure (SMILES)	Fungicidal Activities WLR (C.V.)
CNC(=O)C(=NOC)c1ccccc1CON=C(C)c1cccc(OC(F)=C(c2ccc(OC)cc2)C(F)(F)F)c1 [Compound 198]	53%
COC=C(C(=O)OC)c1ccccc1CON=C(C)c1cccc(OC(F)=C(c2ccc(Cl)cc2)C(F)(F)F)c1 [Compound 163]	86%
CNC(=O)C(=NOC)c1ccccc1CON=C(C)c1cccc(OC(F)=C(c2ccc(C)c(C)c2)C(F)(F)F)c1 [Compound 193]	98%

Same assay, conditions: 10 ppm

Structure (SMILES)	Fungicidal Activities WLR (C.V.)
COC=C(C(=O)OC)c1ccccc1CON=C(C)c1cccc(OC(F)=C(c2ccc(Cl)cc2)C(F)(F)F)c1 [Compound 163]	98%

Same assay, conditions: 50 ppm

Structure (SMILES)	Fungicidal Activities WLR (C.V.)
CNC(=O)C(=NOC)c1ccccc1CON=C(C)c1cccc(OC(F)=C(c2ccc(OC)cc2)C(F)(F)F)c1 [Compound 198]	100%
COC=C(C(=O)OC)c1ccccc1CON=C(C)c1cccc(OC(F)=C(c2ccc(Cl)cc2)C(F)(F)F)c1 [Compound 163]	100%
CNC(=O)C(=NOC)c1ccccc1CON=C(C)c1cccc(OC(F)=C(c2ccc(C)c(C)c2)C(F)(F)F)c1 [Compound 193]	100%

The compounds below were run on Erysiphae graminis (assay: Fungicidal activity against Barley Powdery Mildew (BPM) disease). Details: 2 ppm.
Type: in vivo

Structure (SMILES)	Fungicidal Activities BPM (C.V.)
CNC(=O)C(=NOC)c1ccccc1CON=C(C)c1cccc(OC(F)=C(c2ccc(OC)cc2)C(F)(F)F)c1 [Compound 198]	41%
COC=C(C(=O)OC)c1ccccc1CON=C(C)c1cccc(OC(F)=C(c2ccc(Cl)cc2)C(F)(F)F)c1 [Compound 163]	94%
CNC(=O)C(=NOC)c1ccccc1CON=C(C)c1cccc(OC(F)=C(c2ccc(C)c(C)c2)C(F)(F)F)c1 [Compound 193]	90%

Same assay, conditions: 10 ppm

Structure (SMILES)	Fungicidal Activities BPM (C.V.)
COC=C(C(=O)OC)c1ccccc1CON=C(C)c1cccc(OC(F)=C(c2ccc(Cl)cc2)C(F)(F)F)c1 [Compound 163]	100%

Same assay, conditions: 50 ppm

Structure (SMILES)	Fungicidal Activities BPM (C.V.)
CNC(=O)C(=NOC)c1ccccc1CON=C(C)c1cccc(OC(F)=C(c2ccc(OC)cc2)C(F)(F)F)c1 [Compound 198]	100%
COC=C(C(=O)OC)c1ccccc1CON=C(C)c1cccc(OC(F)=C(c2ccc(Cl)cc2)C(F)(F)F)c1 [Compound 163]	100%
CNC(=O)C(=NOC)c1ccccc1CON=C(C)c1cccc(OC(F)=C(c2ccc(C)c(C)c2)C(F)(F)F)c1 [Compound 193]	100%

Each compound was assayed on Rhizoctonia solani AG-1 (assay: Fungicidal activity against Rice Sheath Blight (RSB) disease). Details: 2 ppm.
Method: To examine fungicidal activity of the compounds of the present invention, each of the compounds listed in Table 3 and 4 was dissolved in 10% acetone to a concentration of 250 ppm, and Tween-20 was added thereto to a concentration of 250 or 500 ppm. 50 ml of the resulting solution was sprayed on leaves of a host plant. The plant was kept at room temperature for 24 hours to let the solvent evaporate, and then, a pathogenic fungus was inoculated thereonto. The plant was held in a humidity chamber for 24 hours, transferred to an plant growth room kept at 20 to 27° C. and a relative humidity of 60 to 80% and kept to induce disease. […] This procedure was repeated twice for each test. 10% Acetone solution containing 250 ppm of Tween-20 was used as a control.
The fungicidal activity of the compound of the present invention is repressed by a control value (C.V.) calculated as; [formula]
Rhizoctonia solani AG-1 was cultured on a PDA medium (potato 200 g, dextrose 20 g, agar 20 g and distilled water 1 ? for 3 days and the agar disc(diameter 0.6 cm) was inoculated and cultured on sterilized wheat bran medium in a 1 L bottle at 26 to 28° C. for 7 days. A mycelial mass was ground using a homogenizer, inoculated uniformly on soil of a pot wherein a Nakdong rice plant having 2 or 3 leaves and an height of 5 cm grew, and kept in humidity polyvinyl chamber for 5 days to induce RSB. L.A. on a leaf sheath was measured to calculate an C.V.

Structure (SMILES)	Fungicidal Activities RSB (C.V.)
COC=C(C(=O)OC)c1ccccc1CON=C(C)c1cccc(OC(F)=C(c2ccc(Cl)cc2)C(F)(F)F)c1 [Compound 163]	40%
CNC(=O)C(=NOC)c1ccccc1CON=C(C)c1cccc(OC(F)=C(c2ccc(C)c(C)c2)C(F)(F)F)c1 [Compound 193]	30%

Same assay, conditions: 10 ppm

Structure (SMILES)	Fungicidal Activities RSB (C.V.)
COC=C(C(=O)OC)c1ccccc1CON=C(C)c1cccc(OC(F)=C(c2ccc(Cl)cc2)C(F)(F)F)c1 [Compound 163]	40%

Same assay, conditions: 50 ppm

Structure (SMILES)	Fungicidal Activities RSB (C.V.)
CNC(=O)C(=NOC)c1ccccc1CON=C(C)c1cccc(OC(F)=C(c2ccc(OC)cc2)C(F)(F)F)c1 [Compound 198]	58%
COC=C(C(=O)OC)c1ccccc1CON=C(C)c1cccc(OC(F)=C(c2ccc(Cl)cc2)C(F)(F)F)c1 [Compound 163]	92%
CNC(=O)C(=NOC)c1ccccc1CON=C(C)c1cccc(OC(F)=C(c2ccc(C)c(C)c2)C(F)(F)F)c1 [Compound 193]	80%
